{
  "source": "patent US12436145B2",
  "about": "“Cryptic antibiotics and methods for detecting bioactive cryptic metabolites” (THE TRUSTEES OF PRINCETON UNIVERSITY, priority 2019, dated 2025)",
  "key": {"S. lavendulae": {"tested_on": "S. lavendulae", "experiment": "Elicitor screening, supernatants in disc diffusion assays against B. subtilis", "type": "cell-based, Streptomyces lavendulae", "settings": "S. lavendulae grown with ~33 μM elicitor, 5 days; supernatant on B. subtilis disc diffusion", "protocol": "For the high-throughput-elicitor screening portion of this example, the procedure is described for S. hiroshimensis. An identical procedure was used for S. lavendulae and A. keratiniphila. […] The culture was incubated at 30° C./250 rpm for two days. Then, the mycelia cell mass was pelleted by centrifugation, the supernatant discarded, and a stock solution of 100 mg/mL cell mass was generated in R4 medium. The stock solution was used to prepare the appropriate volume (see below) of R4 medium containing 0.5 mg/mL mycelia cell mass in a 250 mL Erlenmeyer flask. The suspension was homogenized by stirring at room temperature. Subsequently, a MultiFlow Dispenser (from Biotek, Inc.) was used to dispense 150 μL of the suspension into each well of six sterile round bottom 96 well plates (from Corning, Inc.). Candidate elicitors were added from a commercially-available 502-member Natural Products Library (from Enzo Life Sciences, Inc.) using a CYBI-WELL™ automated liquid transfer robot (from CyBio AG). A volume of 0.5 μL was transferred from the compound library into each well to give a final concentration of ^˜33 μM. […]\nThe resulting agar plates were assessed visually, and subsequently examined visually for halos. To generate FIG. 2, the halo diameter, if any, was measured and categorized as none (n), weak (w), medium (m), or strong (s) inhibition. […]"}, "E. coli": {"tested_on": "E. coli", "experiment": "In-house bioactivity assays of induced peaks and purified taylorflavins", "type": "cell-based"}, "V. cholerae BAA-2163": {"tested_on": "V. cholerae BAA-2163", "experiment": "Minimal inhibitory concentration (CLSI methods)", "type": "cell-based, Vibrio cholerae", "protocol": "(§1) Antibacterial assays with taylorflavin B (8) were carried out by Micromyx, LLC in accordance with methods from the Clinical and Laboratory Standards Institute. Minimal inhibitory concentrations were determined with the following strains: E. coli ATCC 25922, A. baumannii ATCC 19606, V. cholerae BAA-2163, N. gonorrhoeae ATCC 49226, P. aeruginosa ATCC 27853, K. pneumoniae MMX 214. S. aureus ATCC 29213, S. aureus MMX 2011, S. pneumoniae ATCC 49619, S. pyogenes MMX 6253, S. agalactiae MMX 6189, E. faecalis ATCC 29212, E. faecalis MMX 486, B. subtilis ATCC 6633, C. difficile ATCC 700057, B. fragilis ATCC 25285. Assays with taylorflavin A (7) were carried in-house according to the same protocols."}, "A. baumannii ATCC 19606": {"tested_on": "A. baumannii ATCC 19606", "experiment": "Minimal inhibitory concentration (CLSI methods)", "type": "cell-based, Acinetobacter baumannii", "protocol": "as §1"}, "K. pneumoniae MMX 214": {"tested_on": "K. pneumoniae MMX 214", "experiment": "Minimal inhibitory concentration (CLSI methods)", "type": "cell-based", "protocol": "as §1"}, "S. aureus ATCC 29213": {"tested_on": "S. aureus ATCC 29213", "experiment": "Minimal inhibitory concentration (CLSI methods)", "type": "cell-based", "protocol": "as §1"}, "P. aeruginosa ATCC 27853": {"tested_on": "P. aeruginosa ATCC 27853", "experiment": "Minimal inhibitory concentration (CLSI methods)", "type": "cell-based", "protocol": "as §1"}, "E. faecalis ATCC 29212": {"tested_on": "E. faecalis ATCC 29212", "experiment": "Minimal inhibitory concentration (CLSI methods)", "type": "cell-based", "settings": "E. faecalis VSE", "protocol": "as §1"}, "E. faecalis MMX 486": {"tested_on": "E. faecalis MMX 486", "experiment": "Minimal inhibitory concentration (CLSI methods)", "type": "cell-based", "settings": "E. faecalis VRE", "protocol": "as §1"}, "[1]": {"tested_on": "N. gonorrhoeae ATCC 49226", "experiment": "Minimal inhibitory concentration (CLSI methods)", "type": "cell-based", "protocol": "as §1"}, "E. coli ATCC 25922": {"tested_on": "E. coli ATCC 25922", "experiment": "Minimal inhibitory concentration (CLSI methods)", "type": "cell-based", "protocol": "as §1"}, "B. fragilis ATCC 25285": {"tested_on": "B. fragilis ATCC 25285", "experiment": "Minimal inhibitory concentration (CLSI methods)", "type": "cell-based", "protocol": "as §1"}, "S. agalactiae MMX 6189": {"tested_on": "S. agalactiae MMX 6189", "experiment": "Minimal inhibitory concentration (CLSI methods)", "type": "cell-based", "protocol": "as §1"}, "S. aureus MMX 2011": {"tested_on": "S. aureus MMX 2011", "experiment": "Minimal inhibitory concentration (CLSI methods)", "type": "cell-based", "settings": "S. aureus MRSA", "protocol": "as §1"}, "S. pneumoniae ATCC 49619": {"tested_on": "S. pneumoniae ATCC 49619", "experiment": "Minimal inhibitory concentration (CLSI methods)", "type": "cell-based", "settings": "S. pneumoniae PSPP", "protocol": "as §1"}, "C. difficile ATCC 700057": {"tested_on": "C. difficile ATCC 700057", "experiment": "Minimal inhibitory concentration (CLSI methods)", "type": "cell-based", "protocol": "as §1"}, "S. pyogenes MMX 6253": {"tested_on": "S. pyogenes MMX 6253", "experiment": "Minimal inhibitory concentration (CLSI methods)", "type": "cell-based", "protocol": "as §1"}, "B. subtilis ATCC 6633": {"tested_on": "B. subtilis ATCC 6633", "experiment": "Minimal inhibitory concentration (CLSI methods)", "type": "cell-based", "protocol": "as §1"}, "[2]": {"tested_on": "collection of Gram-positive bacteria", "experiment": "Antibacterial assays, Gram-positive panel", "type": "cell-based", "protocol": "as §1"}, "S. hiroshimensis A18": {"tested_on": "S. hiroshimensis A18", "experiment": "Validation of elicitor: disc diffusion assay of culture extracts on E. coli ZSR638", "type": "cell-based, Streptomyces hiroshimensis", "settings": "S. hiroshimensis culture induced by 33 μM atenolol; uninduced control none", "protocol": "Seed cultures of S. hiroshimensis A18 were prepared as described for the HiTES screen above. […] A control flask was prepared containing the same volume of DMSO, rather than atenolol. The culture was incubated at 30° C./200 rpm. […] The organic phases were combined, divided in two, and dried in vacuo.\nFor the disc diffusion assays, the dried control and atenolol-treated culture extracts were dissolved in 100 μL of DMSO each. Filter paper discs were infused with 30 μL of each sample, allowed to dry, and then placed on a soft LB agar (1% agarose) plate inoculated with E. coli ZSR638 at a concentration of 2×10^6 cells/mL. The agar plate was incubated at 37° C. for 10 h and then inspected visually."}, "[3]": {"tested_on": "Gram-positive bacteria tested", "experiment": "Cebulantin bioactivity screen", "type": "cell-based"}, "several Vibrio strains": {"tested_on": "several Vibrio strains", "experiment": "Cebulantin bioactivity screen (IC50)", "type": "cell-based", "settings": "range over several Vibrio strains"}, "β-galactosidase": {"tested_on": "β-galactosidase", "settings": "cited from earlier work"}},
  "note": "Where two headings read alike, the source gives them in different places.",
  "data": [
    {"compound": "COc1ccc2c(=O)cc(-c3ccccc3OC)oc2c1", "note": "[7,2′-dimethoxyflavone]", "values": [
      {"measurement": "induction of anti-B. subtilis metabolite(s)", "setting": "S. lavendulae", "value": "appeared to induce synthesis of anti-B. subtilis metabolite(s)"}
    ]},
    {"compound": "Cn1nc2c(nc1=O)c(=O)n(C)c(=O)n2C", "note": "[Taylorflavin B, 2-methylfervenulone]", "values": [
      {"measurement": "antibiotic activity / inhibition of E. coli growth", "setting": "E. coli", "value": "more potent inhibitor"},
      {"measurement": "antibiotic activity / inhibition of E. coli growth", "setting": "E. coli; listed as 8", "value": "antibiotic activity"},
      {"measurement": "minimal inhibitory concentration (MIC)", "setting": "V. cholerae BAA-2163", "value": 16, "unit": "µg/mL"},
      {"measurement": "minimal inhibitory concentration (MIC)", "setting": "A. baumannii ATCC 19606", "value": 16, "unit": "µg/mL"},
      {"measurement": "minimal inhibitory concentration (MIC)", "setting": "K. pneumoniae MMX 214", "value": ">64", "unit": "µg/mL"},
      {"measurement": "minimal inhibitory concentration (MIC)", "setting": "S. aureus ATCC 29213", "value": 64, "unit": "µg/mL"},
      {"measurement": "minimal inhibitory concentration (MIC)", "setting": "P. aeruginosa ATCC 27853", "value": ">64", "unit": "µg/mL"},
      {"measurement": "minimal inhibitory concentration (MIC)", "setting": "E. faecalis ATCC 29212", "value": ">64", "unit": "µg/mL"},
      {"measurement": "minimal inhibitory concentration (MIC)", "setting": "E. faecalis MMX 486", "value": 64, "unit": "µg/mL"},
      {"measurement": "minimal inhibitory concentration (MIC)", "setting": "[1]", "value": 4, "unit": "µg/mL"},
      {"measurement": "minimal inhibitory concentration (MIC)", "setting": "E. coli ATCC 25922", "value": 16, "unit": "µg/mL"},
      {"measurement": "minimal inhibitory concentration (MIC)", "setting": "B. fragilis ATCC 25285", "value": ">64", "unit": "µg/mL"},
      {"measurement": "minimal inhibitory concentration (MIC)", "setting": "S. agalactiae MMX 6189", "value": 32, "unit": "µg/mL"},
      {"measurement": "minimal inhibitory concentration (MIC)", "setting": "S. aureus MMX 2011", "value": 64, "unit": "µg/mL"},
      {"measurement": "minimal inhibitory concentration (MIC)", "setting": "S. pneumoniae ATCC 49619", "value": 32, "unit": "µg/mL"},
      {"measurement": "minimal inhibitory concentration (MIC)", "setting": "C. difficile ATCC 700057", "value": ">64", "unit": "µg/mL"},
      {"measurement": "minimal inhibitory concentration (MIC)", "setting": "S. pyogenes MMX 6253", "value": 32, "unit": "µg/mL"},
      {"measurement": "minimal inhibitory concentration (MIC)", "setting": "B. subtilis ATCC 6633", "value": 64, "unit": "µg/mL"},
      {"measurement": "growth inhibition of Gram-positive bacteria", "setting": "[2]", "value": "did not inhibit the growth"}
    ]},
    {"compound": "CC(C)NCC(O)COc1ccc(CC(N)=O)cc1", "note": "(stereo not drawn) [atenolol]", "values": [
      {"measurement": "zone of inhibition on E. coli agar plates", "setting": "S. hiroshimensis A18", "value": "clear zone of inhibition"}
    ]},
    {"compound": "C/C=C1\\NC(=O)CNC(=O)[C@H](Cc2ccccc2)NC(=O)[C@H](NC(=O)[C@@H](NC(=O)[C@@H]2CCCN2C(=O)CN)[C@@H](C)CC)[C@H](C)SC[C@@H]2NC(=O)[C@H](NC1=O)[C@H](C)SC[C@@H](C(=O)N1CCC[C@H]1C(=O)N[C@@H]1CSC[C@@H](C(=O)O)NC(=O)[C@H](CO)NC(=O)[C@H](C(C)C)NC(=O)/C(=C/C)NC(=O)[C@H](CC(N)=O)NC(=O)[C@H](C)NC1=O)NC(=O)[C@@H]1C[C@@H](O)CN1C(=O)/C(=C/C)NC(=O)CNC(=O)[C@H](Cc1c[nH]c3ccccc13)NC2=O", "note": "[cebulantin]", "values": [
      {"measurement": "IC50", "setting": "V. alginolyticus", "value": "24.5 ± 3.2", "unit": "µM"},
      {"measurement": "growth-inhibitory activity", "setting": "[3]", "value": "no growth-inhibitory activity"},
      {"measurement": "IC50", "setting": "B. subtilis", "value": "> 100", "unit": "µM"},
      {"measurement": "IC50", "setting": "several Vibrio strains", "value": "8.8 to 29.1", "unit": "µM"},
      {"measurement": "IC50", "setting": "V. cholerae", "value": "14.1 ± 2.4", "unit": "µM"},
      {"measurement": "IC50", "setting": "S. aureus", "value": "> 100", "unit": "µM"},
      {"measurement": "IC50", "setting": "V. parahaemolyticus", "value": "8.8 ± 2.1", "unit": "µM"},
      {"measurement": "IC50", "setting": "P. aeruginose", "value": "47 ± 11.4", "unit": "µM"},
      {"measurement": "IC50", "setting": "E. coli (ΔlptD)", "value": 9.7, "unit": "µM"},
      {"measurement": "IC50", "setting": "V. ordahi", "value": "27 ± 5.4", "unit": "µM"},
      {"measurement": "IC50", "setting": "V. anguillarum", "value": "29.1 ± 8.2", "unit": "µM"}
    ]},
    {"compound": "OCc1cc2c([nH]c3ccccc32)c(C(O)CO)n1", "note": "(stereo not drawn) [pyridindolol]", "values": [
      {"measurement": "inhibitory activity against β-galactosidase", "setting": "β-galactosidase", "value": "inhibitory activity"}
    ]}
  ]
}
